In ChEMBL document CHEMBL1153449, “A new synthesis and an antiviral assessment of the 4'-fluoro derivative of 4'-deoxy-5'-noraristeromycin” (Bioorg Med Chem, 2009) one finds Activity and IC50 data, which are given here for two molecules.

Converted amounts (≈) assume the structure as drawn. The source made the active and inactive calls. No cut-off for these calls is given here.

One experiment relates to Cytomegalovirus. The experiment is described as follows: Antiviral activity against Cytomegalovirus. It is filed as functional, organism-based.
The subject of another experiment is Vaccinia virus. The experiment can be described thus: Antiviral activity against Vaccinia virus. Format: functional, organism-based. To be noted: Orthopoxvirus vaccinia.
In a further experiment the test system is Cowpox virus. The experiment is described as follows: Antiviral activity against Cowpox virus. Format: functional, organism-based.
For experiment [1], the system named is Measles morbillivirus. The experiment can be described thus: Antiviral activity against Measles virus. It is filed as functional, organism-based.
A short description of experiment [2]: Cytotoxicity against african green monkey CV1 cells. Format: cell-based. To be noted: Chlorocebus aethiops, CV-1.
Experiment [3] concerns Measles morbillivirus. The experiment can be described thus: Antiviral activity against Measles virus by neutral red assay. Format: functional, organism-based.

Regarding `Nc1ncnc2c1ncn2[C@@H]1CC(F)(F)[C@@H](O)[C@H]1O`, the result with Cytomegalovirus, in the experiment with Vaccinia virus and in the experiment on Cowpox virus was Active.

In general, IC50 refers to the midpoint of a concentration-inhibition curve. Take `Nc1ncnc2c1ncn2[C@@H]1C[C@H](F)[C@@H](O)[C@H]1O`: the result with Cytomegalovirus, in the experiment on Vaccinia virus and with Cowpox virus was inactive. Moreover, the IC50 worked out at 14 µg/mL (≈ 55.3 µM) with Measles morbillivirus [1], 21 µg/mL (≈ 82.9 µM) in experiment [2] and 1.2 µg/mL (≈ 4.74 µM) in the experiment on Measles morbillivirus [3].
